Experimental data reported in US20260007684A1, “AMIDE DERIVATIVES FOR INHIBITING NLRP3 AND USES THEREOF” (Ventus Therapeutics U.S., Inc., priority 2023, published 2026).

What was measured:
human NLRP3 [1] = target: T1, human NLRP3 (Homo sapiens (Human), UniProt Q96P20); experiment: Human Whole Blood (hWB) NLRP3 Assay (LPS/ATP, IL-1β); assay type: cell-based
human NLRP3 [2] = target: T1, human NLRP3; experiment: Human PBMC NLRP3 Assay (LPS priming, ATP stimulation, cytokine measurement); assay type: cell-based
human NLRP3 [3] = target: T1, human NLRP3; experiment: Scintillation Proximity (SPA) NLRP3 Assay: displacement of 3H-MCC950; assay type: binding
[4] = human whole blood, LPS/ATP, IL-1β, read-out: hWB IC50
[5] = human PBMC, LPS priming, ATP stimulation, read-out: PBMC IC50
[6] = displacement of 3H-MCC950, read-out: SPA IC50
[7] = PBMC IC50, human PBMC, LPS priming, ATP stimulation
[8] = hWB IC50, human whole blood, LPS/ATP, IL-1β

T1 sequence (Q96P20 whole entry): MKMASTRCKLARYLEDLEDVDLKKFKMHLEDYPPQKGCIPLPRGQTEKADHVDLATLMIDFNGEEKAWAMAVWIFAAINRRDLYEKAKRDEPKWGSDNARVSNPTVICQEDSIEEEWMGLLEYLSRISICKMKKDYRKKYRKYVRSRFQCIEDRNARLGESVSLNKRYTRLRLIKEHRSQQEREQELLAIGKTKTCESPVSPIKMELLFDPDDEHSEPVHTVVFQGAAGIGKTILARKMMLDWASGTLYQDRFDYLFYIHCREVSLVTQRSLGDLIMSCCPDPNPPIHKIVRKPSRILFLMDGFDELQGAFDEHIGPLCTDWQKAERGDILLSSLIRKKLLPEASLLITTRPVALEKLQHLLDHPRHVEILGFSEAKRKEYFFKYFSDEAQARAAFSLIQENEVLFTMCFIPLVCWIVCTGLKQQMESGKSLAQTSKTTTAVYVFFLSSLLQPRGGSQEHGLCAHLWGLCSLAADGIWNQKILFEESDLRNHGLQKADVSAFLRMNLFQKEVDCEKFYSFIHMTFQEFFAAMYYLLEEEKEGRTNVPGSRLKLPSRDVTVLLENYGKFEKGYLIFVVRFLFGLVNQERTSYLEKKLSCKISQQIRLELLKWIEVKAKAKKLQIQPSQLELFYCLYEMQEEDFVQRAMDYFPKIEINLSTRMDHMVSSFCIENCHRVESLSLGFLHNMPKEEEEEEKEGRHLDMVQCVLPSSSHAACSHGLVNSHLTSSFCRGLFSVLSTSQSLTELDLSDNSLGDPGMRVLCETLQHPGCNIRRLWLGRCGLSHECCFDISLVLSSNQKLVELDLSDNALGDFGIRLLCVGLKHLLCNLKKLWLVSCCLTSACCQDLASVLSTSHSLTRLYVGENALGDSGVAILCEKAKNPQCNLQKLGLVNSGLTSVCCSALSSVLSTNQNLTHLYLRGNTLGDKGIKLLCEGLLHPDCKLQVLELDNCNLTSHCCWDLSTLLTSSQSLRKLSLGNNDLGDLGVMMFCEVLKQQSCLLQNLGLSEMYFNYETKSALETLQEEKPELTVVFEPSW

SMILES	IC50 (human NLRP3 [1]; [4]) [nM]	IC50 (human NLRP3 [2]; [5]) [nM]	IC50 (human NLRP3 [3]; [6]) [nM]	other results
C[C@@H]1CCN(c2nnn[nH]2)C[C@@H](NC(=O)C2(c3ccc(C(F)(F)F)cc3O)CC2)C1 (single isomer, unassigned) [63B*]	< 1000	10 to 100	< 1000	–
C[C@@H]1CCN(c2nnn[nH]2)C[C@H](NC(=O)C2(c3ccc(C(F)(F)F)cc3)CC2)C1 (single isomer, unassigned) [61A*]	< 1000	10 to 100	< 1000	–
O=C(N[C@@H]1CC[C@H]2CC[C@@H]1N2c1nnn[nH]1)C1(c2ccc(Cl)cc2O)CC1 [75C*, N-((1S,2R,5S)-8-(1H-tetrazol-5-yl)-8-azabicyclo[3.2.1]octan-2-yl)-1-(4-chloro-2-hydroxyphenyl)cyclopropane-1-carboxamide]	1000 to 2000	–	< 1000	IC50 (human NLRP3 [2]; [7]): 10 to 100 nM
C[C@@H]1C[C@@H](NC(=O)C2(c3ccc(SC(F)F)cc3)CC2)[C@H]2CC[C@@H]1N2c1nnn[nH]1 [85A*, 1-(4-((difluoromethyl)thio)phenyl)-N-((1R,2R,4R,5S)-4-methyl-8-(1H-tetrazol-5-yl)-8-azabicyclo[3.2.1]octan-2-yl)cyclopropane-1-carboxamide]	–	–	< 1000	IC50 (human NLRP3 [1]; [8]): < 1000 nM; IC50 (human NLRP3 [2]; [7]): < 10 nM
O=C(N[C@@H]1CCN(c2nnn[nH]2)C1)C1(c2ccc(Cl)cc2)CC1 (single isomer, unassigned) [Comparative Example A*, reference compound]	–	–	–	IC50 (human NLRP3 [1]; read-out: hWB IC50): > 50000 nM; IC50 (human NLRP3 [3]; read-out: SPA IC50): 420000 nM
C[C@H]1C[C@@H]2CC[C@H]([C@H](NC(=O)C3(c4ccc(C(F)(F)F)cc4)CC3)C1)N2c1nnn[nH]1 [104A*, N-((1R,2R,4R,6S)-4-methyl-9-(1H-tetrazol-5-yl)-9-azabicyclo[4.2.1]nonan-2-yl)-1-(4-(trifluoromethyl)phenyl)cyclopropane-1-carboxamide]	–	–	< 1000	IC50 (human NLRP3 [1]; [8]): 2000 to 3000 nM
C[C@@H]1C[C@H](NC(=O)C2(c3ccc(OC(F)F)cc3O)CC2)[C@H]2CC[C@@H]1N2c1nnn[nH]1 [43B*, N-((1R,2S,4R,5S)-4-methy1-8-(1H-tetrazol-5-yl)-8-azabicyclo[3.2.1]octan-2-yl)-1-(4-(difluoromethoxy)-2-hydroxyphenyl)cyclopropane-1-carboxamide]	> 3000	–	< 1000	–
COc1cc(F)c(C2(C(=O)N[C@@H]3C[C@@H](C)[C@@H]4CC[C@H]3N4c3nnn[nH]3)CC2)c(F)c1 (single isomer, unassigned) [102A*]	–	–	< 1000	IC50 (human NLRP3 [1]; [8]): < 1000 nM
C[C@@H]1C[C@H]2CC[C@@H]([C@H](NC(=O)C3(c4ccc(C(F)(F)F)cc4)CC3)C1)N2c1nnn[nH]1 [104C*, N-((1S,2R,4S,6R)-4-methyl-9-(1H-tetrazol-5-yl)-9-azabicyclo[4.2.1]nonan-2-yl)-1-(4-(trifluoromethyl)phenyl)cyclopropane-1-carboxamide]	–	–	< 1000	IC50 (human NLRP3 [1]; [8]): < 1000 nM
O=C(Nc1cccc(-c2ccccc2)c1)C1(c2ccc(Cl)cc2)CC1 [Comparative Example D, N-([1,1′-biphenyl]-3-yl)-1-(4-chlorophenyl)cyclopropane-1-carboxamide, reference compound]	–	–	–	IC50 (human NLRP3 [1]; read-out: hWB IC50): > 50000 nM; IC50 (human NLRP3 [3]; read-out: SPA IC50): 320000 nM
C[C@@H]1C[C@@H](NC(=O)C2(c3ccc(C4CC4(F)F)cc3)CC2)[C@H]2CC[C@@H]1N2c1nnn[nH]1 (single isomer, unassigned) [37A*]	–	–	< 1000	IC50 (human NLRP3 [1]; [8]): 1000 to 2000 nM
CN(C(=O)C1(c2ccc(Cl)cc2)CC1)c1cccc(-c2nnn[nH]2)c1 [Comparative Example B2, N-(3-(1H-tetrazol-5-yl)phenyl)-1-(4-chlorophenyl)-N-methylcyclopropane-1-carboxamide, reference compound]	–	–	–	IC50 (human NLRP3 [1]; read-out: hWB IC50): > 50000 nM; IC50 (human NLRP3 [3]; read-out: SPA IC50): 200000 nM
C[C@@H]1CC(NC(=O)C2(c3ccc(OC(F)F)cc3O)CC2)[C@H]2CC[C@@H]1N2c1nnn[nH]1 (single isomer, unassigned) [43A*]	–	–	< 1000	IC50 (human NLRP3 [1]; [8]): < 1000 nM
C[C@@H]1C[C@@H](NC(=O)C2(c3ccc(OC(F)F)cc3F)CC2)[C@H]2CC[C@@H]1N2c1nnn[nH]1 (stereo in doubt) [Compound 101A, 1-(4-(difluoromethoxy)-2-fluorophenyl)-N-(4-methyl-8-(1H-tetrazol-5-yl)-8-azabicyclo[3.2.1]octan-2-yl)cyclopropane-1-carboxamide]	–	–	< 1000	IC50 (human NLRP3 [1]; [8]): < 1000 nM
C[C@H]1C[C@@H](NC(=O)C2(c3ccc(OC(F)F)cc3)CC2)[C@H]2CC[C@@H]1N2c1nnn[nH]1 (single isomer, unassigned) [35E*]	> 3000	–	1000 to 10000	–
C[C@@H]1CCN(c2nnn[nH]2)C[C@H](NC(=O)C2(c3ccc(C(F)F)cc3)CC2)C1 (single isomer, unassigned) [5A*, 1-(4-(difluoromethyl)phenyl)-N-(5-methyl-1-(1H-tetrazol-5-yl)azepan-3-yl)cyclopropane-1-carboxamide]	–	10 to 100	< 1000	–
O=C(N[C@@H]1C[C@@H](C(F)(F)F)[C@@H]2CC[C@H]1N2c1nnn[nH]1)C1(c2ccc(Cl)cc2)CC1 (single isomer, unassigned) [103A*]	–	–	–	IC50 (human NLRP3 [1]; [8]): < 1000 nM; IC50 (human NLRP3 [3]; SPA IC50, displacement of 3H-MCC950): < 1000 nM
C[C@@H]1CCN(c2nnn[nH]2)C[C@H](NC(=O)C2(c3ccc(Cl)cc3Cl)CC2)C1 (single isomer, unassigned) [55A*]	–	10 to 100	< 1000	–
Cc1ccc(C2(C(=O)N[C@@H]3C[C@H](C)CCN(c4nnn[nH]4)C3)CC2)c(O)c1F (single isomer, unassigned) [22A*, 1-(3-fluoro-2-hydroxy-4-methylphenyl)-N-(5-methyl-1-(1H-tetrazol-5-yl)azepan-3-yl)cyclopropane-1-carboxamide]	< 1000	< 10	–	–

The next lines start with results.

IC50 (human NLRP3 [1]; [4]) [nM]	IC50 (human NLRP3 [2]; [5]) [nM]	IC50 (human NLRP3 [3]; [6]) [nM]	SMILES	other results
> 3000	< 10	< 1000	C[C@@H]1CCN(c2nnn[nH]2)C[C@H](NC(=O)C2(c3c(F)cc(Cl)cc3F)CC2)C1 (single isomer, unassigned) [72A*]	–
< 1000	< 10	< 1000	CC(C)c1ccc(C2(C(=O)N[C@@H]3C[C@H](C)CCN(c4nnn[nH]4)C3)CC2)c(O)c1 (single isomer, unassigned) [27A*, 1-(2-hydroxy-4-isopropylphenyl)-N-(5-methyl-1-(1H-tetrazol-5-yl)azepan-3-yl)cyclopropane-1-carboxamide]	–
1000 to 2000	10 to 100	< 1000	C[C@@H]1CCN(c2nnn[nH]2)C[C@H](NC(=O)C2(c3cc(F)c(Cl)cc3O)CC2)C1 (single isomer, unassigned) [29A*, 1-(4-chloro-5-fluoro-2-hydroxyphenyl)-N-(5-methyl-1-(1H-tetrazol-5-yl)azepan-3-yl)cyclopropane-1-carboxamide]	–
> 3000	10 to 100	< 1000	C[C@@H]1CCN(c2nnn[nH]2)C[C@H](NC(=O)C2(c3ccc(OC(F)(F)F)c(F)c3O)CC2)C1 (single isomer, unassigned) [28A*, 1-(3-fluoro-2-hydroxy-4-(trifluoromethoxy)phenyl)-N-(5-methyl-1-(1H-tetrazol-5-yl)azepan-3-yl)cyclopropane-1-carboxamide]	–
< 1000	–	< 1000	C[C@H]1C[C@@H](NC(=O)C2(c3ccc(C(F)F)cc3O)CC2)CN(c2nnn[nH]2)C1 [Compound 48A, 1-(4-(difluoromethyl)-2-hydroxyphenyl)-N-((3R,5S)-5-methyl-1-(1H-tetrazol-5-yl)piperidin-3-yl)cyclopropane-1-carboxamide]	–
–	< 10	< 1000	CC1(C)C[C@@H](NC(=O)C2(c3ccc(Cl)cc3O)CC2)CN(c2nnn[nH]2)C1 (single isomer, unassigned) [42A*]	IC50 (human NLRP3 [2]; read-out: PBMC IC50): 5.8 nM; IC50 (human NLRP3 [3]; read-out: SPA IC50): 47 nM
–	10 to 100	< 1000	C[C@@H]1CCN(c2nnn[nH]2)C[C@H](NC(=O)C2(c3ccc(C(F)(F)F)c(OC(F)F)c3)CC2)C1 (single isomer, unassigned) [54A*]	–
–	10 to 100	< 1000	C[C@@H]1CCN(c2nnn[nH]2)C[C@H](NC(=O)C2(c3ccc(C4CC4)cc3)CC2)C1 (single isomer, unassigned) [2A*]	–
–	100 to 500	10000 to 50000	C[C@H]1CCN(c2nnn[nH]2)C[C@H](NC(=O)C2(c3ccc(Cl)c(F)c3O)CC2)C1 (single isomer, unassigned) [18C*, 1-(4-chloro-3-fluoro-2-hydroxyphenyl)-N-(5-methyl-1-(1H-tetrazol-5-yl)azepan-3-yl)cyclopropane-1-carboxamide]	–
–	10 to 100	< 1000	C[C@@H]1CCN(c2nnn[nH]2)C[C@H](NC(=O)C2(c3ccc(OC(F)F)cc3F)CC2)C1 (single isomer, unassigned) [3A*]	–
< 1000	–	< 1000	O=C(N[C@@H]1CCCCN(c2nnn[nH]2)C1)C1(c2ccc(Cl)cc2O)CC1 [Compound 52A, (R)-N-(1-(1H-tetrazol-5-yl)azepan-3-yl)-1-(4-chloro-2-hydroxyphenyl)cyclopropane-1-carboxamide]	IC50 (human NLRP3 [1]; read-out: hWB IC50): 260 nM; IC50 (human NLRP3 [3]; read-out: SPA IC50): 79 nM
–	100 to 500	< 1000	C[C@H]1CCN(c2nnn[nH]2)C[C@@H](NC(=O)C2(c3ccc(Cl)c(F)c3O)CC2)C1 (single isomer, unassigned) [18D*, 1-(4-chloro-3-fluoro-2-hydroxyphenyl)-N-(5-methyl-1-(1H-tetrazol-5-yl)azepan-3-yl)cyclopropane-1-carboxamide]	–
